The record followed here is US9232799B2, “N-[(het)arylethyl)] pyrazole(thio)carboxamides and their heterosubstituted analogues” (BAYER INTELLECTUAL PROPERTY GMBH, priority 2010, dated 2016).

SMILES strings stand for the structures.

One data set relates to Cochliobolus miyabeanus. Briefly: In vivo protective test on Cochliobolus miyabeanus (rice). As to conditions: evaluated 4 days after inoculation; for Efficacy (protection): protective, 10 ppm of active ingredient (lowest of 250, 100, 50 and 10 ppm).
The subject of a further data set is aflatoxines production. Nature of the data set: microbe, parasite or virus in culture. In kind it is cell-based, Aspergillus parasiticus.
For another data set, the system named is Leptosphaeria nodorum. Nature of the data set: In vivo preventive test on Leptosphaeria nodorum (wheat). The following applies: 500 ppm of active ingredient, evaluated 7-9 days after inoculation. The text has this: One day after this treatment, the plants are inoculated with an aqueous spore suspension of Leptosphaeria nodorum.
The subject of the next data set is Uromyces appendiculatus. Nature of the data set: In vivo preventive test on Uromyces appendiculatus (beans). As to conditions: 100 ppm of active ingredient, evaluated 10 days after inoculation.
In a further data set the test system is Alternaria solani. Briefly: In vivo preventive test on Alternaria solani (tomato). As to conditions: 500 ppm of active ingredient, evaluated 7 days after inoculation. The text has this: One day after this treatment, the plants are inoculated with an aqueous spore suspension of Alternaria solani.
The test system of the next data set is Puccinia triticina. Briefly: In vivo preventive test on Puccinia triticina (wheat). The following applies: dose 500 ppm of active ingredient, evaluated 8 days after inoculation.
In data set [1] the test system is Blumeria graminis f.sp. hordei. Nature of the data set: In vivo preventive test on Blumeria graminis (barley). As to conditions: 500 ppm of active ingredient, evaluated 7 days after inoculation. The text has this: (§1) To test for preventive activity, young plants are sprayed with the preparation of active compound or active compound combination at the stated rate of application.

Data set [2] concerns Fusarium nivale (var. majus). Nature of the data set: In vivo preventive test on Fusarium nivale (wheat). As to conditions: 500 ppm of active ingredient, evaluated 5 days after inoculation.
From the text: as §1

In a further data set the test system is Fusarium graminearum. Nature of the data set: microbe, parasite or virus in culture. In kind it is cell-based.
The test system of a further data set is Venturia inaequalis. Briefly: In vivo preventive test on Venturia inaequalis (apple scab). As to conditions: 100 ppm of active ingredient, evaluated 10 days after inoculation.
For a further data set, the system named is Pyrenophora teres. Nature of the data set: In vivo preventive test on Pyrenophora teres (barley). The following applies: 500 ppm of active ingredient, evaluated 7-9 days after inoculation. From the text: One day after this treatment, the plants are inoculated with an aqueous spore suspension of Pyrenophora teres.
The nature of data set [3]: logP by HPLC on reversed-phase column (C 18), EEC Directive 79/831 Annex V.A8. Format: physicochemical. The protocol: In table 1, the logP values were determined in accordance with EEC Directive 79/831 Annex V.A8 by HPLC (High Performance Liquid Chromatography) on a reversed-phase column (C 18), using the method described below: Temperature: 40° C.; […]
The test system of a further data set is Botrytis cinerea. Nature of the data set: In vivo preventive test on Botrytis cinerea (beans). The following applies: preventive, beans, 100 ppm of active ingredient, lesion size 2 days after inoculation. From the text:
To test for preventive activity, young plants are sprayed with the preparation of active compound. After the spray coating has dried on, 2 small pieces of agar covered with growth of Botrytis cinerea are placed on each leaf.

In the next data set the test system is Sphaerotheca fuliginea. Briefly: In vivo preventive test on Sphaerotheca fuliginea (cucumber). As to conditions: 500 ppm of active ingredient, evaluated 7 days after inoculation. The text has this:
One day after this treatment, the plants are inoculated with an aqueous spore suspension of Sphaerotheca fuliginea.

Another data set has as its system Septoria tritici. Briefly: In vivo preventive test on Septoria tritici (wheat). The following applies: 500 ppm of active ingredient, evaluated 21 days after inoculation.
From the text: as §1

[4] abbreviates: dose 10 ppm of active ingredient.
The mark [5] stands for this setting: dose 50 ppm of active ingredient.
The mark [6] stands for this setting: dose 100 ppm of active ingredient.
Setting [7] is: dose 250 ppm of active ingredient.

On to `COC(c1ccc(Cl)cc1Cl)C(C)NC(=O)c1cn(C)nc1C(F)F` (stereo not drawn) [1.14 from WO-2008/148570, N-[1-(2,4-dichlorophenyl)-1-methoxypropan-2-yl]-3-(difluoromethyl)-1-methyl-1H-pyrazole-4-carboxamide, reference compound], for which the Efficacy was found to be 20% in the data set on Cochliobolus miyabeanus (setting [4]), 80% in the data set on Cochliobolus miyabeanus (setting [5]), 92% in the data set on Cochliobolus miyabeanus (setting [6]) and 98% in the data set with Cochliobolus miyabeanus (setting [7]). Besides, the “Efficacy (protection)” value in the data set with Cochliobolus miyabeanus is reported as “less than 20%”.

As to `CC(Cc1c(Cl)cccc1Cl)N(C(=O)c1c(C(F)F)nn(C)c1F)C1CC1` (stereo not drawn) [Example 115], the “% Inhibition of Aflatoxin at 50 μM” value in the data set with aflatoxines production amounted to 100%. The Efficacy with Leptosphaeria nodorum was 95%; in the data set on Uromyces appendiculatus, 98%; in the data set on Alternaria solani, 100%; in the data set on Puccinia triticina, 90%; in data set [1], 100%; in data set [2] it was 100%. Further, the Efficacy is listed as 100% in the data set with Venturia inaequalis, 100% in the data set on Pyrenophora teres, 93% in the data set with Botrytis cinerea and 100% in the data set on Sphaerotheca fuliginea. Further, the “% Inhibition of fungal growth at 50 μM” value in the data set on Fusarium graminearum stood at 100%. In [3], this compound came in with a logP of 4.06.

For `CC(Cc1ccc(Cl)cc1)N(C(=O)c1c(C(F)F)nn(C)c1F)C1CC1` (stereo not drawn) [Example 55], in the data set on aflatoxines production, the “% Inhibition of Aflatoxin at 50 μM” value is 100%. The Efficacy with Leptosphaeria nodorum amounted to 95%; with Uromyces appendiculatus, 96%; in the data set on Alternaria solani it was 95%; in data set [1], 100%; in [2], 100%; in the data set on Septoria tritici, 100%. Further, the Efficacy in the data set with Venturia inaequalis, with Pyrenophora teres, with Botrytis cinerea and with Sphaerotheca fuliginea was 100% in each case. In addition, the “% Inhibition of fungal growth at 50 μM” value with Fusarium graminearum was found to be 100%. In addition, the logP in data set [3] is given as 3.73.

On to `CC(Cc1cccc(Cl)c1)NC(=O)c1c(C(F)F)nn(C)c1F` (stereo not drawn) [Example 50], for which the “% Inhibition of Aflatoxin at 50 μM” value in the data set with aflatoxines production is recorded as 100%. Also, the Efficacy in the data set on Cochliobolus miyabeanus (setting [7]) is on record as 90%; in the data set with Alternaria solani, 100%; with Pyrenophora teres, 100%. The “% Inhibition of fungal growth at 50 μM” value in the data set on Fusarium graminearum stood at 100%. This compound also gave a logP in [3] of 3.02.

Turning to `CC(Cc1cc(Cl)ccc1Cl)NC(=O)c1c(C(F)F)nn(C)c1F` (stereo not drawn) [Example 92], the “% Inhibition of Aflatoxin at 50 μM” value in the data set on aflatoxines production stood at 100%. Moreover, the Efficacy in the data set on Cochliobolus miyabeanus (setting [7]) stood at 90%; in the data set with Alternaria solani, 100%; in the data set with Pyrenophora teres, 100%; in the data set on Sphaerotheca fuliginea it was 88%. Besides, the “% Inhibition of fungal growth at 50 μM” value in the data set on Fusarium graminearum is 100%. This compound also came in with a logP in data set [3] of 3.37.

Turning to `Cn1nc(C(F)F)c(C(=O)NCCc2ccc(Cl)cc2Cl)c1F` [Example 65], the “% Inhibition of Aflatoxin at 50 μM” value in the data set on aflatoxines production was determined as 100%. The Efficacy in the data set on Uromyces appendiculatus turned out to be 100%; in the data set on Alternaria solani, 90%; in data set [1], 95%; with Septoria tritici, 100%; with Venturia inaequalis it was 100%; in the data set with Pyrenophora teres it was 100%. The same compound came in with an Efficacy in the data set with Sphaerotheca fuliginea of 79%. In addition, in the data set on Fusarium graminearum, the “% Inhibition of fungal growth at 50 μM” value was 100%. Further, the logP in data set [3] is on record as 3.09.

Consider `CC(Cc1c(F)cccc1Cl)N(C(=O)c1c(C(F)F)nn(C)c1F)C1CC1` (stereo not drawn) [Example 120], for which the “% Inhibition of Aflatoxin at 50 μM” value in the data set on aflatoxines production is on record as 100%. In addition, the Efficacy in the data set on Leptosphaeria nodorum worked out at 100%; in the data set with Uromyces appendiculatus, 100%; with Alternaria solani, 100%; in the data set on Puccinia triticina, 70%; in data set [1], 94%; in data set [2] it was 100%. The Efficacy was found to be 100% in the data set on Septoria tritici; 100% in the data set on Venturia inaequalis; 100% in the data set on Pyrenophora teres; 94% in the data set on Botrytis cinerea; 100% with Sphaerotheca fuliginea. Further, the “% Inhibition of fungal growth at 50 μM” value in the data set on Fusarium graminearum was 100%. This compound also displayed a logP in data set [3] of 3.76.

With `COC(c1ccc(Cl)cc1Cl)C(C)NC(=O)c1c(C(F)F)nn(C)c1F` (stereo not drawn) [Example 73, N-[1-(2,4-dichlorophenyl)-1-methoxypropan-2-yl]-3-(difluoromethyl)-5-fluoro-1-methyl-1H-pyrazole-4-carboxamide], the inhibition at 50 µM with aflatoxines production (Aspergillus parasiticus, 168 h, read-out: % Inhibition of Aflatoxin at 50 μM) was 100%; in the data set on Fusarium graminearum (Fusarium graminearum, 168 h, read-out: % Inhibition of fungal growth at 50 μM), 100%. Also, the Efficacy in the data set on Cochliobolus miyabeanus (setting [4]) worked out at 65%; in the data set on Cochliobolus miyabeanus (setting [5]) it was 92%; with Cochliobolus miyabeanus (setting [6]), 97%; with Cochliobolus miyabeanus (setting [7]), 98%; in the data set on Alternaria solani it was 100%; in data set [1], 100%. Moreover, the Efficacy in data set [2] is on record as 88%; in the data set on Septoria tritici it was 100%; in the data set with Venturia inaequalis, 100%; in the data set on Pyrenophora teres, 100%; with Sphaerotheca fuliginea it was 100%. Also, the “Efficacy (protection)” value with Cochliobolus miyabeanus is recorded as “at least 65%”. Besides, in [3], the logP is 3.75. Besides, in data set [3] (logP), the chromatographic logP came out at 3.65. Further, the pest or weed control at 100 ppm with Botrytis cinerea (Botrytis cinerea, 48 h, read-out: Efficacy) came out at 99%.

As for `Cn1nc(C(F)F)c(C(=O)NC2CC2c2ccc(Cl)cc2)c1F` (stereo not drawn) [Example 224], in the data set on aflatoxines production, the “% Inhibition of Aflatoxin at 50 μM” value is given as 100%. The Efficacy turned out to be 80% in the data set on Leptosphaeria nodorum; 100% in the data set with Uromyces appendiculatus; 95% in the data set with Alternaria solani; 100% in the data set with Venturia inaequalis; 100% with Pyrenophora teres; 84% with Sphaerotheca fuliginea. Moreover, the “% Inhibition of fungal growth at 50 μM” value in the data set on Fusarium graminearum is 100%. In addition, the lipophilicity (logP) in data set [3] turned out to be 2.61.

For `COC(CN(C(=O)c1c(C(F)F)nn(C)c1F)C1CC1)c1ccc(Cl)cc1Cl` (stereo not drawn) [Example 80], the “% Inhibition of Aflatoxin at 50 μM” value with aflatoxines production was found to be 100%. The Efficacy in the data set with Leptosphaeria nodorum is reported as 100%; in the data set on Uromyces appendiculatus, 80%; with Alternaria solani, 95%; in the data set on Puccinia triticina it was 80%; in the data set on Venturia inaequalis, 100%; with Pyrenophora teres it was 100%. Also, the Efficacy in the data set on Botrytis cinerea and in the data set with Sphaerotheca fuliginea was 100% each time. In addition, the “% Inhibition of fungal growth at 50 μM” value in the data set with Fusarium graminearum is on record as 100%.

Consider `Cn1nc(C(F)F)c(C(=O)NCCc2ncc(C(F)(F)F)cc2Cl)c1F` [Example 187], for which the “% Inhibition of Aflatoxin at 50 μM” value in the data set on aflatoxines production is 100%. For the same compound, the Efficacy with Cochliobolus miyabeanus (setting [7]) is recorded as 85%; with Uromyces appendiculatus, 96%; in the data set with Alternaria solani, 100%; in data set [1] it was 94%; in the data set on Septoria tritici it was 100%; in the data set on Venturia inaequalis, 100%. The Efficacy in the data set on Pyrenophora teres and in the data set with Botrytis cinerea was 100% throughout. Moreover, the “% Inhibition of fungal growth at 50 μM” value with Fusarium graminearum turned out to be 100%. Further, the logP in data set [3] is recorded as 2.75.

Regarding `Cc1cc(Br)ccc1C(=O)C(C)(C)NC(=O)c1c(C(F)F)nn(C)c1F` [Example 133], in the data set with aflatoxines production, the “% Inhibition of Aflatoxin at 50 μM” value worked out at 100%. In addition, the Efficacy in the data set with Leptosphaeria nodorum was found to be 100%; with Alternaria solani it was 95%; in [1], 100%; in [2] it was 100%; in the data set on Septoria tritici, 80%; in the data set with Venturia inaequalis it was 100%. In addition, the Efficacy in the data set with Pyrenophora teres, with Botrytis cinerea and with Sphaerotheca fuliginea was 100% each time. For the same compound, the “% Inhibition of fungal growth at 50 μM” value in the data set on Fusarium graminearum turned out to be 100%. Further, the logP in data set [3] is given as 3.37.

In the case of `Cn1nc(C(F)F)c(C(=O)NCCc2ccc(Cl)cc2Cl)c1Cl` [Example 66], in the data set with aflatoxines production, the “% Inhibition of Aflatoxin at 50 μM” value is 100%. Also, the Efficacy is given as 98% with Uromyces appendiculatus; 90% in [1]; 100% in [2]; 71% in the data set on Septoria tritici; 100% with Venturia inaequalis. In the data set with Fusarium graminearum, the “% Inhibition of fungal growth at 50 μM” value turned out to be 100%. The logP in [3] amounted to 3.31.

One may read the logP as the decadic logarithm of the partition coefficient of the neutral form, usually between octanol and water. In general, inhibition refers to the share of the control response that was lost under treatment. The term chromatographic logP denotes a lipophilicity value derived from retention on a column.
